From ChEMBL document CHEMBL1146291, “Structure-activity delineation of quinones related to the biologically active Calothrixin B” (Bioorg Med Chem Lett, 2007)

Experiments:
HeLa = test: Cytotoxicity against human HeLa cells by MTT assay; format: functional, cell-based
P388 = test: Cytotoxicity against mouse P388 cells by MTT assay; format: functional, cell-based
[1] = Cytotoxicity against CV1 cells by MTT assay; format: cell-based; details: Chlorocebus aethiops, CV-1

Compound | EC50 (HeLa) [µM] | EC50 (P388) [µM] | EC50 [1] [µM]
CC1=CC(=O)c2c([nH]c3ccccc23)C1=O | 7 | 1 | 1.7
O=C1C=CC(=O)c2c1[nH]c1ccccc21 | > 50 | > 50 | > 50
O=C1c2[nH]c3ccccc3c2C(=O)c2ccc3ccccc3c21 | 1.5 | > 50 | > 50
O=C1c2ccccc2C(=O)c2c1[nH]c1ccccc21 [BENZOCARBAZOLEDIONE] | 1.8 | > 50 | > 50
O=C1c2[nH]c3ccccc3c2C(=O)c2cnc3ccccc3c21 [CALOTHRIXIN B] | 0.25 | 9 | 2.4
CC1=CC(=O)c2[nH]c3ccccc3c2C1=O [MURRAYAQUINONE A] | 13 | 2.3 | 10
